Results: patent US5306713A, “Highly active antioxidant of tocopheryl ascorbyl phosphate” (Shiseido Company Ltd., priority 1991, dated 1994)
Where a name gives a salt, the structure may show the parent alone.

What was measured:
solubility in water = assay type: physicochemical
[1] = anti-oxidizing effect against oxidation of phospholipid/ethanol mixed micell by Fe^2+.ascorbic acid (Experimental Example 3); assay type: biochemical; details: 4.0 × 10^-5 M
Method: The anti-oxidizing effect of the sodium salt of phosphoric acid diester prepared in Preparation Example 2 against the oxidation of a phospholipid (egg lecitin)/ethanol mixed micell by Fe^2+.ascorbic acid was examined.
About 78 mg of egg lecitin was dissolved in 2 ml of ethanol, and 5 mM HEPES buffer solution (pH 7.2) was gradually added to the solution with ice cooling under the application of an ultrasonic wave (50 W) to form a suspension, until the total amount was 100 ml. Then, 200 μl of a 2.6×10^-4 M aqueous solution of the sodium salt of phosphoric acid diester was added to 1000 μl of the so-formed liquid. Then 50 μl of a 5.0×10^-5 M aqueous solution of sodium ascorbate and 50 μl of a 2.5×10^-6 M aqueous solution of ferrous sulfate were added to the mixture, and oxidation was carried out for 15 minutes in a water bath at 25° C. After the reaction, 50 μl of a 0.1% solution of hydroquinone in ethanol was immediately added to stop the reaction. […] After cooling, the absorbance at 450 to 600 nm was measured by a spectrophotometer. The increase of the absorption in the vicinity of about 530 to about 540 nm in the obtained curve was measured. The inhibition ratio was determined by comparing the obtained result with the result obtained at the blank test not using the test liquid.

[2] = amount of formalin in triethylene glycol stored at 50° C., by colorimetry (Experimental Example 1); details: 50% aqueous triethylene glycol; for amount of formalin, After 3 Days / amount of formalin, After 6 Days / amount of formalin, Just After Preparation: 2 mg antioxidant in 10 g
Method: As the example of the present invention, 2 mg of the sodium salt of phosphoric acid diester obtained in Preparation Example 2 was dissolved in 10 g of a 50% aqueous solution of triethylene glycol (supplied by Nakarai Chemicals Co., Ltd.), the solution was stored in a thermostat tank maintained at 50° C. for 3 or 6 days, and the amount of formalin was measured by colorimetry.
Triethylene glycol free of any antioxidant as Comparison Example 1, triethylene glycol in which ascorbic acid was added in the same amount as in the Example of the present invention, as Comparison Example 2, and triethylene glycol in which mixed tocopherol was incorporated in the same amount as in the example of the present invention, as Comparison Example 3, were tested in the same manner as described above.

[3] = smell evaluation of stored triethylene glycol samples by three experts (Experimental Example 2); parameters: key: +: no smell of rancidity; -: strong smell of rancidity; details: samples of Experimental Example 1 after 6 days storage
Method: The sample of the Example of the present invention and Comparison Examples 1, 2, and 3 in Experimental Example 1, obtained after 6 days storage, were evaluated with respect to the smell thereof.
The evaluation was made by three experts.

[4] = cited from earlier work

| Compound | solubility in water (in words) (solubility in water) | amount of formalin, After 3 Days ([2]; 50° C.) | amount of formalin, After 6 Days ([2]; 50° C.) | amount of formalin, Just After Preparation [2] | Judgement of Smell [3] | also measured |
| --- | --- | --- | --- | --- | --- | --- |
| Cc1c(C)c2c(c(C)c1OP(=O)(O)OC1=C(O)[C@@H]([C@@H](O)CO)OC1=O)CCC(C)(CCCC(C)CCCC(C)CCCC(C)C)O2 (mixture of isomers) [phosphoric acid diester, L-ascorbic DL-α-tocopherol phosphate] | freely dissolved in water |  |  |  |  |  |
| Cc1c(C)c2c(c(C)c1OP(=O)(O)OC1=C(O)[C@@H]([C@@H](O)CO)OC1=O)CCC(C)(CCCC(C)CCCC(C)CCCC(C)C)O2 (mixture of isomers) [potassium salt, potassium L-ascorbic DL-α-tocopherol phosphate] | soluble in water |  |  |  |  |  |
| Cc1c(C)c2c(c(C)c1OP(=O)(O)OC1=C(O)[C@@H]([C@@H](O)CO)OC1=O)CCC(C)(CCCC(C)CCCC(C)CCCC(C)C)O2 (mixture of isomers) [sodium salt of phosphoric acid diester, sodium L-ascorbic DL-α-tocopherol phoschate] | soluble in water | 1.7 | 15.5 | 0.1 | + | inhibition of the oxidation (in words) [1]: substantially completely inhibited the oxidation; Inhibition Ratio ([1]; oxidation 15 minutes at 25° C., pH 7.2 HEPES, TBA absorbance about 530 to about 540 nm, 40 µM): 99.1%; anti-oxidizing effect compared with ascorbic acid or tocopherol alone (in words) ([2]; 50° C., 3 or 6 days): much higher anti-oxidizing effect |
| O=C1O[C@H]([C@@H](O)CO)C(O)=C1O [ascorbic acid, reference compound] |  | 39.6 | 111.7 | 0.1 | - |  |
| Cc1c(C)c2c(c(C)c1OP(=O)(O)OC1=C(O)[C@@H]([C@@H](O)CO)OC1=O)CCC(C)(CCCC(C)CCCC(C)CCCC(C)C)O2 (stereo partly shown) [calcium salt] | insoluble in water |  |  |  |  |  |
| tocopherol |  |  |  |  |  | solubility of tocopherol in water (in words) [4]: not soluble in water |
